From patent US20240215582A1, “METHODS OF CONTROLLING PLANT PATHOGENS” (Valent BioSciences LLC, priority 2022, published 2024)

Tests used:
Puccinia triticina = assay: Host plant efficacy assay (wheat); format: in vivo
Pythium ultimum = assay: In vitro growth on cervinomycin-amended growth media; format: cell-based
Phytophthora capsici = assay: as above; format: cell-based
[1] = tested on: Pseudoperonospora cubensis; assay: Host plant efficacy assay (cucumber); format: in vivo

Question: What does the source list for COc1cc2oc3c(c(=O)c2cc1OC)C(=O)c1c(ccc2cc4c(c(O)c12)C(=O)N1CCOC1(C)C4)C3=O (stereo not shown) [Cervinomycin A2, cervinomycin A2]?
Answer: % control Puccinia triticina Wheat 6DBI (Puccinia triticina; 11.3 ppm): 0 (0 (about 0%)); % control Puccinia triticina Wheat 6DBI (Puccinia triticina; 45 ppm): 0 (0 (about 0%)); % control Puccinia triticina Wheat 6DBI (Puccinia triticina; 180 ppm): 0 (0 (about 0%)); % Control Pythium ultimum (Pythium ultimum; 0.004 ppm in growth media): 0%; % Control Pythium ultimum (Pythium ultimum; 0.016 ppm in growth media): 13%; % Control Pythium ultimum (Pythium ultimum; 0.063 ppm in growth media): 99%; % Control Pythium ultimum (Pythium ultimum; 0.25 ppm in growth media): 96%; % Control Pythium ultimum (Pythium ultimum; 1 ppm in growth media): 99%; % Control Phytophthora capsici (Phytophthora capsici; 0.004 ppm in growth media): 4%; % Control Phytophthora capsici (Phytophthora capsici; 0.016 ppm in growth media): 75%; % Control Phytophthora capsici (Phytophthora capsici; 0.063 ppm in growth media): 90%; % Control Phytophthora capsici (Phytophthora capsici; 0.25 ppm in growth media): 99%; % Control Phytophthora capsici (Phytophthora capsici; 1 ppm in growth media): 100%; % control Pseudoperonospora cubensis Cucumber 1DBI ([1]; 11.3 ppm): 0 (0 (about 0%)); % control Pseudoperonospora cubensis Cucumber 1DBI ([1]; 45 ppm): 0 (0 (about 0%)); % control Pseudoperonospora cubensis Cucumber 1DBI ([1]; 180 ppm): 3 (3 (about 70%))
